Experimental data taken from article PMC4670083 (Nature medicine, 2015).

Target: T1, HPRT1 (Homo sapiens, UniProt P00492)
T1 sequence (P00492 2-218): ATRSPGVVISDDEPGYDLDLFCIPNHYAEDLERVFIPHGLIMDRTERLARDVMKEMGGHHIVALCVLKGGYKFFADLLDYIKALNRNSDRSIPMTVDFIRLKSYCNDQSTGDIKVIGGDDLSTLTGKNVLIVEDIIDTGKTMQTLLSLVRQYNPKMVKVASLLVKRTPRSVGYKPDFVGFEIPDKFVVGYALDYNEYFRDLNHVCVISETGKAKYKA
Assay: biochemical

Compound: O=c1[nH]cnc2nc[nH]c12 [HX, hypoxanthine]
- IC50: 7.7 µM
